# In patent EP4759817A1, “HETEROARYL COMPOUND, PREPARATION METHOD THEREFOR, AND USE THEREOF IN MEDICINE” (Jiangsu Hengrui Pharmaceuticals Co., Ltd., priority 2023, dated 2025):
# Columns and labels:
# HCT116 cells = experiment: HCT116 cell proliferation assay (CellTiter-Glo, 10 days); type: cell-based; conditions: Homo sapiens, HCT-116, 240 h, growth inhibition, CTG assay Day 10
# Source text: • I. Experimental materials and instruments • 1. HCT116 cell line (Nanjing Kebai Biotechnology Co., Ltd., CBP60028) • 2. HCT116 MTAP-/- cell line (Nanjing Kebai Biotechnology Co., Ltd., CBP75002) • 3. DMSO (Sigma, D2650) • 4. McCoy's 5A medium (Gibco, 16600-082) • 5. Foetal bovine serum (FBS) (Gibco, 10091148) • 6. Phosphate buffered saline (DPBS) pH 7.4 (Gibco, 14190-144) • 7. Pen strep (PS) (Gibco, 15140-122) • 8. 0.25% Typsin-EDTA (1×) (Gibco, 25200-072) • 9. CellTiter-Glo® Luminescent Cell Viability Assay (Promega, G7572) • 10. 96-well round-bottom plate (JET, TCP002096) • 11. 96-well black clear bottom plate (Hangzhou Xinyou Biotechnology Co., Ltd., 060096) • 12. 1.2 mL 96-well deep well plate, clear, sterile, square-well, V-bottom (Titan, 02089063) • 13. 15-mL centrifuge tube (Titan) • 14. Biosafety cabinet (Thermo, 1300AII) • 15. Cell counter (Countstar, IC1000) • 16. Incubator (Thermo, I160) • 17. Centrifuge (Beckman coulter, Allegra X-12 centrifuge) • 18. PHERAstar FS microplate reader (BMG Labtech) • II. Experimental procedure • 1. Cell plating (Day 0) • a) The cell morphology was observed under a microscope to ensure confluence reached approximately 90%. • b) The cell supernatant was aspirated, the cells were washed once with PBS, and then the PBS was removed; and the cells were digested by adding an appropriate amount of trypsin, and left to stand at 37°C for 3 minutes. • c) The digestion was terminated by adding an equal volume of McCoy's 5A medium containing 10% FBS, and the cell suspension was collected and centrifuged at 300 g for 3 minutes; and the cells were resuspended in an appropriate amount of fresh medium. • d) The resuspended cell suspension was taken for counting. • e) The cell suspension was diluted to 1e4/mL using McCoy's 5A medium containing 10% FBS, and seeded at 50 µL per well, corresponding to 500 cells/well for HCT116 and 500 cells/well for HCT116 MTAP-/-. • f) The cell plate was placed in a 37°C, 5% carbon dioxide incubator and incubated overnight. • 2. Compound treatment (Day 1) • a) Each compound was serially diluted in DMSO to generate a 9-point concentration gradient (starting concentration: 10000 µM, 3-fold dilution; the highest concentration may be adjusted individually based on IC50 of different compounds); for example, in a 96-well round-bottom compound-dilution plate, 5 µL of the compound was sequentially diluted into 10 µL of DMSO. • b) Each concentration point of every compound was then diluted 250-fold into the corresponding volume of McCoy's 5A medium. • c) To each cell plate, 50 µL of the diluted compound solution as described above was added sequentially to the cell supernatant (50 µL/well). • d) The compound-treated cell plate was placed in a 37°C, 5% carbon dioxide incubator and incubated. • 3. […]
# Lu99 xenografts = experiment: Efficacy test in subcutaneous Lu99 xenograft model; type: in vivo, NUNU nude mice; conditions: i.g., qd/21d
# Source text: To evaluate the inhibitory effect of the compounds of the present disclosure on tumour growth in a subcutaneous xenograft model using the human lung giant cell carcinoma cell line Lu99 in female NUNU nude mice
# Using a solution of 20% PEG400 + 70% (10% TPGS) + 5%DMSO+5% (1% HPMCK100LV) solution
# Laboratory animals: Female NUNU nude mice, purchased from Zhejiang Vital River Laboratory Animal Technology Co., Ltd. (License No.: SCXK(Zhe)2024-0001; animal qualification certificate No.: 20240524Abzz0619000789), weighing approximately 20-24 g at arrival.
# Housing conditions: The mice were housed 5 per cage under a 12/12 h light/dark cycle, constant temperature of 23°C ± 1°C, humidity of 50%-60%, with free access to food and water.
# After acclimatisation, NUNU nude mice were grouped and administered as follows: Table 4. Animal grouping and dosing regimen for in vivo efficacy experiment
# (§1) 0.1 ml (5 × 10^5 cells ± 50% matrigel) of Lu99 cells (cell-to-matrigel volume ratio = 1 : 1) in the logarithmic growth phase was subcutaneously injected into the right upper limb of each mouse. When the mean tumour volume reached 75 mm^3, mice were randomly assigned to 4 groups (12 mice per group) based on tumour volume and body weight, as shown in Table 4. The day of grouping was designated as D0, and oral gavage administration was initiated once or twice daily for a total of 21 days. The 21st day after administration was designated as D21 (Table 5). Tumour volume and body weight of tumour-bearing mice were measured twice weekly using a calliper and a balance, respectively, and the data were recorded.
# All data were plotted and statistically analysed using Excel and GraphPad Prism 10 software.
# Tumour volume (V) was calculated using the formula: V = 1/2 × a × b^2, where a represents the length and b represents the width.
# Relative tumour proliferation rate: T/C (%) = (T-T0)/(C-C0) × 100(%), where T and C are the tumour volumes of the treated and control groups at the end of the experiment, and T0 and C0 are the corresponding tumour volumes at the start of the experiment.
# Tumour growth inhibition: TGI (%) = 100-T/C (%).
# [1] = Body weight and survival of tumour-bearing mice in the Lu99 efficacy test; type: in vivo, NUNU nude mice; conditions: for Surviving animals/group: i.g., qd/21d
# Procedure: as §1
SMILES,IC50 (HCT116 cells),Mean tumour volume (mm^3) D21 (Lu99 xenografts; 50 mpk),TGI (%) D21 (Lu99 xenografts; 50 mpk),Mean tumour volume (mm^3) D21 (Lu99 xenografts; 100 mpk),TGI (%) D21 (Lu99 xenografts; 100 mpk),Mean tumour volume (mm^3) D21 (Lu99 xenografts; 200 mpk),TGI (%) D21 (Lu99 xenografts; 200 mpk),"effect on body weight of the mice ([1]; 50, 100 and 200 mpk/qd, once daily for 21 days)",Surviving animals/group ([1]; 50 mpk),Surviving animals/group ([1]; 100 mpk),Surviving animals/group ([1]; 200 mpk)
"Cn1ncc(-c2ccc3c(=O)[nH]nc(CN)c3c2)c1-c1c(F)cc2c(c1C#N)O[C@H]1CC[C@H]1O2 (atropisomer, axis not shown; (M)) [Compound 1-p1, (M)-(2aS,8aR)-5-(4-(4-(aminomethyl)-1-oxo-1,2-dihydrophthalazin-6-yl)-1-methyl-1H-pyrazol-5-yl)-6-fluoro-1,2,2a,8a-tetrahydrobenzo[b]cyclobuta[e][1,4]dioxine-4-carbonitrile]",1450 nM,,,,,,,,,,
"[2H]C([2H])([2H])n1ncc(-c2ccc3c(=O)[nH]nc(CN)c3c2)c1-c1c(F)cc2c(c1C#N)O[C@H]1CC[C@H]1O2 (single isomer, unassigned) [Compound 2-p1]",1300 nM,574 mm^3,72%,256 mm^3,90%,165 mm^3,95%,no effects on body weight,12/12,12/12,12/12
"[2H]C([2H])([2H])n1ncc(-c2ccc3c(=O)[nH]nc(CN)c3c2)c1-c1c(F)cc2c(c1C#N)N1CCC[C@H]1CO2 (single isomer, unassigned) [Compound 8-p1]",1450 nM,,,,,,,,,,
